Results on three compounds are retold here after BindingDB's records for doi:10.1021/acs.biochem.6b00733 (Utrecht University, 2016).

As a reminder, the Ki is a dissociation constant, usually derived from enzyme kinetics or from competition with a known ligand.

In this assay the target is T1, Nicotinamide N-methyltransferase (Homo sapiens, UniProt P40261).
T1 sequence (P40261 whole entry): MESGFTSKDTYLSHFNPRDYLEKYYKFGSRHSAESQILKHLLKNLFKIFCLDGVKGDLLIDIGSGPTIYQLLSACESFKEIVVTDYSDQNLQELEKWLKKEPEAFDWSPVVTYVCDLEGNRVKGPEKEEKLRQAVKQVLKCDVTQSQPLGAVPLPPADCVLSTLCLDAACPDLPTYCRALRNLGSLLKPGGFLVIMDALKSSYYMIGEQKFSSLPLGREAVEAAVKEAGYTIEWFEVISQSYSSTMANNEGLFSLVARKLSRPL
Briefly: NNMT Enzymatic Activity Assay. Particulars: pH 8.6; 37 °C. The method, then:
Enzyme activity assays were performed as previously described with NNMT (16.25 ug/mL, 550 nM) in 50 mM Tris buffer (pH 8.6) containing 1 mM DTT (all final concentrations). The enzyme was incubated with the substrate pyridine compound for 5 min at 37 °C using a heat block before the reaction was initiated by addition of AdoMet (for substrates that were not soluble in water, stocksolutions were prepared in DMSO and diluted to a final DMSO concentration of <5% in the assay mixture). […] For these screens, the final reagent concentrations were 100 uM AdoMet and 2.0 mM substrate and a series of time points were initially investigated (5, 15, 30, and 60 min). At each time point, 15 uL aliquots of the reaction mixture were taken and added to 70 uL of acetonitrile, which served to quench the reaction by causing precipitation of the enzyme.

For the compound `c1ccc2c(c1)CCNC2` [1,2,3,4-tetrahydroisoquinoline], the Ki was 4.7 mM.
As to `NC(=O)c1cnc2ccccc2c1` [quinoline 3-carboxamide], the inhibition constant Ki was found to be 9.7 mM.
For `NC(=S)c1cccnc1` [thionicotinamide] the value was 6.6 mM.
